l = locked nucleic acid (LNA); d = 2'-deoxy (DNA)
Experiments:
[1] = Oral capsule toxicokinetic study of CIVI 008 using 5-CNAC as carrier; format: in vivo, Cynomolgus monkey; details: for AUC with increasing dose of CIVI 008 / Cmax with increasing dose of CIVI 008: constant dose of 5-CNAC
Source text: The objectives of this study were to determine the ability of 5-CNAC [Disodium N-(5-Chorosalicyloyl)-8-aminocaprylate] to facilitate oral uptake of CIVI 008 and to determine the manufacture method and dosing paradigm of CIVI 008/5-CNAC capsules that provide the most efficient oral uptake of CIVI 008 when administered to Cynomolgus monkeys of Mauritian origin.
Study outline: A total of 10 Cynomolgus monkeys (5 males and 5 females) were each dosed with 2 group A capsules on Monday and Wednesday in week 1, followed by 4 days of dosing holiday. This Monday and Wednesday dosing scheme was continued in weeks 2, 3, 5, 6, 7, 8, 13, 14, 15 and 17 using 2 group B-capsules per dose occasion in week 2, and 1 capsule of groups C to K per dose occasion in their respective weeks. During the dosing period, blood samples for PK analysis were drawn pre-dose and 0.5, 1.5, 3 and 5 hours post-dosing on Mondays and Wednesdays. Samples for clinical chemistry and hematology (see example 1) were taken pre-study and end of study.

plasma LDL = test: Plasma LDL after once-daily oral CIVI 008/5-CNAC capsule for 49 days; format: in vivo, Cynomolgus monkey; details: 5-CNAC vs SNAC
Protocol: The objectives of this study were to determine the ability of 5-CNAC [disodium N-(5-chorosalicyloyl)-8-aminocaprylate] to reduce plasma PCSK9 when dosed once daily for 7 weeks. The half-life of CIVI 008 in the liver of non-human primates is between 2 to 3 weeks, so after 7-weeks of dosing liver concentrations are expected to reach >80% of its steady state level.
Study outline: Dry blended capsules (20 mg CIVI 008/200 mg 5-CNAC) were manufactured from uniform dry blended formulations, that were filled into enterically coated Size 0, hard shell gelatin capsules. A total of 10 Cynomolgus monkeys (5 males and 5 females) were each administered a single capsule by oral gavage once daily for 49 days. […] During the dosing period, blood samples for PK analysis were drawn pre-dose and 0.5, 1.5, 3 and 5 hours post-dosing at study start and at day 49. Blood samples for PCSK9 and lipid analysis were drawn on week −2 and −1 pre-study, pre-dose on Day 1 and weekly thereafter for the duration of the study. Samples for clinical chemistry, coagulation and hematology were taken on week −2 and −1 pre-study, and on Day 22 and 49.

[2] = Oral capsule PK study of CIVI 008 without GalNAc using 5-CNAC as carrier; format: in vivo, Cynomolgus monkey; details: single oral capsule 20 mg/200 mg 5-CNAC
Source text: As shown in previous Examples 1 and 3, orally dosed CIVI 008 with GalNAc is rapidly internalized in the liver by the GalNAc receptor, with very little CIVI 008 escaping into general circulation at doses below that required for saturation of the GalNAc receptor. In many instances the objective is to target genes that are expressed in organs other than the liver. […] The objective of this study was to determine the systemic exposure of orally administered CIVI 008 without the GalNAc conjugate, and to compare the exposure to that of a similar oral dose of CIVI 008 with GalNAc.
(§1) Study outline: Dry blended capsules (20 mg CIVI 008 without GalNAc/200 mg 5-CNAC) were manufactured from uniform dry blended formulations, that were filled into enterically coated Size 0, hard shell gelatin capsules. A total of 10 Cynomolgus monkeys (5 males and 5 females) were each administered a single capsule by oral gavage, and blood samples for PK analysis were drawn pre-dose and 0.5, 1.5, 3 and 5 hours post-dosing.

[3] = Oral capsule PK study of an oligo against Factor VII, with or without GalNAc, using 5-CNAC as carrier; format: in vivo, Cynomolgus monkey
Protocol: as §1, with “(20 mg Factor FVII with or without GalNac/200” for “(20 mg CIVI 008 without GalNAc/200”, “or without GalNac/200 mg 5-CNAC)” for “008 without GalNAc/200 mg 5-CNAC)”, “single capsule of either oligo by oral” for “single capsule by oral”

[4] = Repeat-dose toxicity of CIVI 008 formulated with SNAC (GLP); format: in vivo, Cynomolgus monkey
[5] = cynomolgus monkey, in vivo
Protocol: (§3) The objectives of this study were to evaluate the toxicity and reversibility of CIVI 008 and to determine the pharmacology, plasma exposure and target organ accumulation of CIVI 008 when administered daily by oral capsule to the Cynomolgus monkey of Mauritian origin for 42 days compared to administration by the subcutaneous route administered once every two weeks (investigated previously).
(§4) Oral Capsule: Capsules containing CIVI 008 (10 mg)/SNAC (100 mg) were manufactured as uniform dry blend formulations, that were filled into Size 4 hard shell gelatin capsules that were enterically coated post fill.

PCSK9 = PCSK9 change from baseline after daily oral CIVI 008/SNAC capsules for 42 days; format: in vivo, Cynomolgus monkey; details: control animals, 20 mg CIVI 008 capsules without SNAC, daily x 42
Source text: (§2) Clinical chemistry, PCSK9 and lipids: urea nitrogen, creatinine, total protein, albumin, globulin, albumin:globulin ratio, total bilirubin, aspartate aminotransferase, alanine aminotransferase, alkaline phosphatase, gamma glutamyltransferase, creatine kinase, calcium, inorganic phosphorus, sodium, potassium, chloride, high density lipoproteins, low density lipoprotein, very low density lipoprotein, total cholesterol, triglycerides.

[6] = Half-life of CIVI 008 in the liver; format: in vivo, non-human primates; details: expected after 7-weeks of once daily dosing
[7] = cynomolgus monkey, in vivo, po
Protocol: as §3, §4

plasma LDL-cholesterol = test: Plasma LDL cholesterol change from baseline after daily oral CIVI 008/SNAC capsules; format: in vivo, Cynomolgus monkey
Source text: as §2

[8] = CIVI 008 with 5-CNAC capsule, stated as specific aspect
[9] = dose range 5 mg to 30 mg, 200 mg 5-CNAC
[10] = single oral capsule 20 mg/200 mg 5-CNAC

## O=C(O)CCCCCCCNC(=O)c1cc(Cl)ccc1O [5-CNAC, N-(5-chlorosalicyloyl)-8-aminocaprylic acid]
[1]; 5-CNAC vs SNAC
  efficiency of carrier in facilitating oral uptake of CIVI 008: more efficient of the two carriers
Plasma LDL
  efficiency in facilitating oral uptake of CIVI 008: substantially more efficient than SNAC

## CIVI 008 without GalNAc: Unconjugated form of CIVI 008, 16 nt LNA gapmer, SEQ ID NO: 134, without GalNAc moiety (AATGCTACAAAACCCA; LNA gapmer stated, pattern not given here)
[2]
  AUC relative to similar dose of CIVI 008 with GalNac: ~8 fold
  Cmax relative to similar dose of CIVI 008 with GalNac: ~8 fold
  concentrations in the plasma: measurable concentrations
  plasma profile compared to CIVI 008 with GalNAc: very similar

## GalNac conjugated Factor FVII oligo: 13 nt LNA gapmer antisense oligo against Factor VII, SEQ ID NO: 158, with GalNAc moiety (antisense GCACCACGGTCCA; sugars from the 5' end l2 d8 l3, all phosphorothioate, methylation of C not given here; GalNAc conjugate attached, further chemistry not fully specified)
[3]; 0.5 hr samples
  species found in plasma samples: parent compound
[3]; 1.5 hr samples
  species found in plasma samples: mixture of parent compound and loss of carbohydrate moiety
[3]; 3 hr samples
  species found in plasma samples: progressive loss of carbohydrate moiety
[3]; 5 hr samples
  species found in plasma samples: progressive loss of carbohydrate moiety

## cepadacursen (AATGCTACAAAACCCA; LNA gapmer with GalNAc conjugate, pattern not given here) [CIVI 008]
[4]; QD oral dosing for 42 days
  histopathological changes in intestinal tract (duodenum, jejunum, ileum and colon): no local histopathological changes
[4]; end of dosing and end of recovery
  macroscopic or microscopic findings suggesting local or systemic effects: no macroscopic or microscopic findings
[4]; following oral capsule administration
  organ weight changes: no organ weight changes
[5]
  liver concentrations, difference between the SQ and PO arms: approximately one
PCSK9
  mean PCSK9 reductions: comparatively small
[6]
  liver concentrations as share of steady state level: > 80%
[1]; 5-CNAC vs SNAC (Example 1)
  AUC0-5 with 5-CNAC carrier compared to similar dose with SNAC carrier: increase
  Cmax with 5-CNAC carrier compared to similar dose with SNAC carrier: increase
[1]; [8]
  increase of the mean AUC0-50 with respect to corresponding composition comprising SNAC instead of 5-CNAC: about 80%
  increase of the mean Cmax with respect to corresponding composition comprising SNAC instead of 5-CNAC: about 110%
[1]; dose above 25 mg
  AUC with increasing dose of CIVI 008: more than dose proportional increases
  Cmax with increasing dose of CIVI 008: more than dose proportional increases
[1]; doses up to 25 mg
  AUC with increasing dose of CIVI 008: dose proportionally up to 25 mg
  Cmax with increasing dose of CIVI 008: dose proportionally up to 25 mg
[1]; [9]
  AUC profiles, freeze-dried vs dry blended capsules: very similar
  Cmax profiles, freeze-dried vs dry blended capsules: very similar
[7]
  form of CIVI 008 detected in plasma (HPLC peak): mixture of parent compound and metabolites
  form of CIVI 008 detected in plasma (HPLC retention time): absorbed intact from the gut
  mean Tmax: ≤ 30 min
Plasma LDL-cholesterol; control animals, 20 mg CIVI 008 capsules without SNAC, throughout the study
  LDL-c reductions: fluctuated around baseline values
Plasma LDL-cholesterol; end of recovery
  LDL levels at the end of recovery: had yet to fully return to baseline
Plasma LDL-cholesterol; recovery period after 42 days oral dosing with SNAC
  LDL levels at the end of dosing, persistence: maintained for two weeks post-dosing

## unconjugated Factor FVII oligo: 13 nt LNA gapmer antisense oligo against Factor VII, SEQ ID NO: 158, without GalNAc moiety (antisense GCACCACGGTCCA; sugars from the 5' end l2 d8 l3, all phosphorothioate, methylation of C not given here)
[3]; [10]
  AUC relative to GalNac conjugated Factor FVII oligo: ~3.5 fold
  Cmax relative to GalNac conjugated Factor FVII oligo: ~3.5 fold

Reference: patent publication US20220380761A1, “ORAL DELIVERY OF OLIGONUCLEOTIDES” (CiVi Biopharma, Inc., priority 2021, published 2022)
